From patent publication EP4678638A1, “NEW E3 UBIQUITIN LIGASE LIGAND, PROTEIN DEGRADATION AGENT AND USE THEREOF” (priority 2023, dated 2024)

Key:
RSK1 = molecular target: T1, RSK1 (Homo sapiens, UniProt Q15418); assay: Western blot degradation of RSK1 (hPBMC); assay type: cell-based; conditions: Table D8
T1 construct: evaluate the effects of the compounds of the present disclosure on the expression of target proteins in cells; endogenous in cells; host or cells: hPBMC
Summary of the method: (§1)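 Degradation is assessed by immunoblotting lysates of treated cells. Target bands are quantified by grayscale and normalised to an internal control, so degradation rate equals 100% minus % remaining.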

RSK2 = molecular target: T2, RSK2 (Homo sapiens, UniProt P51812); assay: Western blot degradation of RSK2 (hPBMC); assay type: cell-based; conditions: Table D8
T2 construct: evaluate the effects of the compounds of the present disclosure on the expression of target proteins in cells; endogenous in cells; host or cells: hPBMC
Summary of the method: as §1

T1 sequence (Q15418 whole entry): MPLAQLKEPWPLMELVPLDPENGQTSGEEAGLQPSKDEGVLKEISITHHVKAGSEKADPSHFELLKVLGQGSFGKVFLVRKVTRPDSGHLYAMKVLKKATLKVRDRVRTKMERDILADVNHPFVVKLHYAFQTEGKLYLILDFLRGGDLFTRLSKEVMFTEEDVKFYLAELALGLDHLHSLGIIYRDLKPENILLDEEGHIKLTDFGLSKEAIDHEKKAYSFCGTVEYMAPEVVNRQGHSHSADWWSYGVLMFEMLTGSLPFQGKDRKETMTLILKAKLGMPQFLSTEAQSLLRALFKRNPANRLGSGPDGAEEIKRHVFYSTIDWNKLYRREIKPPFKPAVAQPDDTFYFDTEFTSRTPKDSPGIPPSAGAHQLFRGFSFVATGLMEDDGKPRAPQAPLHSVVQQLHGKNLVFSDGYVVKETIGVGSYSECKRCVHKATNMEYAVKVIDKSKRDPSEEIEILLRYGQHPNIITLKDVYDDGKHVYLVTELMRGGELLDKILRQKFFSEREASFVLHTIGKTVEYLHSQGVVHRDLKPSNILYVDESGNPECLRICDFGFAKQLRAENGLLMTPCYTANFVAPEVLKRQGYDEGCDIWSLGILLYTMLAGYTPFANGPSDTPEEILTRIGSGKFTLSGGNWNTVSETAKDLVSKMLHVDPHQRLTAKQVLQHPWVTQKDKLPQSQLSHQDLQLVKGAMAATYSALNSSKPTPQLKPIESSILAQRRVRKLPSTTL
T2 sequence (P51812 whole entry): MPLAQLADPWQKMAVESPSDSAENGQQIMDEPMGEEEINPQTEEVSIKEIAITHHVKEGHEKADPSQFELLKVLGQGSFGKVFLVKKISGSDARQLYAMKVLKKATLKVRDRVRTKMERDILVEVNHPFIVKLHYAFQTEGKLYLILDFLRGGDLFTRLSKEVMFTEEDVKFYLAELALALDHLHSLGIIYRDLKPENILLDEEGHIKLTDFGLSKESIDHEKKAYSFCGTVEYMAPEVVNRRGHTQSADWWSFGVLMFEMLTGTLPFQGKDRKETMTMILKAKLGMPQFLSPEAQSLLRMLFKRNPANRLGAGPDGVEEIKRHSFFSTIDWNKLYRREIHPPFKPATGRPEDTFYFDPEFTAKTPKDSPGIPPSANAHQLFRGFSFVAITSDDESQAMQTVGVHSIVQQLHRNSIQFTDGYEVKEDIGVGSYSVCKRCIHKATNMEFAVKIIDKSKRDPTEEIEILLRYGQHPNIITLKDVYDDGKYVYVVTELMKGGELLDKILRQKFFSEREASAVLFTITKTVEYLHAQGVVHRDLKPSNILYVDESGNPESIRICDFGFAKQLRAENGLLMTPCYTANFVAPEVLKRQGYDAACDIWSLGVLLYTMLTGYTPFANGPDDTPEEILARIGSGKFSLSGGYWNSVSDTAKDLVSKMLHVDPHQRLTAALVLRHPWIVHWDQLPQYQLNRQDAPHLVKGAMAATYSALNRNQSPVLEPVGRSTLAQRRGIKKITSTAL

Compound	Degradation of substrate protein RSK1 (substrate protein remaining %) (RSK1)	Degradation of substrate protein RSK2 (substrate protein remaining %) (RSK2)
C[C@@H]1CNC(=O)c2cc3ccc(C(=O)Nc4cnn(Cc5ccc(N6CCC(N(C)Cc7ccc(N8CCC(=O)NC8=O)cn7)CC6)cc5)c4)nc3n21 [GT-07940, (R)-N-(1-(4-(4-(((5-(2,4-dioxotetrahydropyrimidin-1(2H)-yl)pyridin-2-yl)methyl)(methyl)amino)piperidin-1-yl)benzyl)-1H-pyrazol-4-yl)-9-methyl-6-oxo-6,7,8,9-tetrahydropyrido[3',2':4,5]py rrolo[1,2-a]pyrazine-2-carboxamide]	A (A is defined as 0% ≤ substrate protein remaining % ≤ 80%)	A (A is defined as 0% ≤ substrate protein remaining % ≤ 80%)
C[C@@H]1CNCc2cc3ccc(C(=O)Nc4cnn(Cc5ccc(N6CCC(N(C)Cc7ccc(N8CCC(=O)NC8=O)nc7)CC6)cc5)c4)nc3n21 [GT-07941, (R)-N-(1-(4-(4-(((6-(2,4-dioxotetrahydropyrimidin-1(2H)-yl)pyridin-3-yl)methyl)(methyl)amino)piperidin-1-yl)benzyl)-1H-pyrazol-4-yl)-9-methyl-6,7,8,9-tetrahydropyrido[3',2':4,5]py rrolo[1,2-a]pyrazine-2-carboxamide]	A (A is defined as 0% ≤ substrate protein remaining % ≤ 80%)	A (A is defined as 0% ≤ substrate protein remaining % ≤ 80%)
C[C@@H]1CNC(=O)c2cc3ccc(C(=O)Nc4cnn(Cc5ccc(N6CCC(N(C)Cc7cccc(NC8CCC(=O)NC8=O)c7)CC6)cc5)c4)nc3n21 (stereo partly drawn) [GT-07942, (9R)-N-(1-(4-(4-((3-((2,6-dioxopiperidin-3-yl)amino)benzyl)(methyl)amino)piperidin-1-yl)benzyl)-1H-pyrazol-4-yl)-9-methyl-6-oxo-6,7,8,9-tetrahydropyrido[3',2':4,5]py rrolo[1,2-a]pyrazine-2-carboxamide]	A (A is defined as 0% ≤ substrate protein remaining % ≤ 80%)	A (A is defined as 0% ≤ substrate protein remaining % ≤ 80%)
C[C@@H]1CNC(=O)c2cc3ccc(C(=O)Nc4cnn(Cc5ccc(N6CCC(N(C)Cc7cc(N8CCC(=O)NC8=O)ncc7F)CC6)cc5)c4)nc3n21 [GT-07943, (R)-N-(1-(4-(4-(((2-(2,4-dioxotetrahydropyrimidin-1(2H)-yl)-5-fluoropyridin-4-yl)methyl)(methyl)amino)piperidin-1-yl)benzyl)-1H-pyrazol-4-yl)-9-methyl-6-oxo-6,7,8,9-tetrahydropyrido[3',2':4,5]py rrolo[1,2-a]pyrazine-2-carboxamide]	A (A is defined as 0% ≤ substrate protein remaining % ≤ 80%)	A (A is defined as 0% ≤ substrate protein remaining % ≤ 80%)
C[C@@H]1CNC(=O)c2cc3ccc(C(=O)Nc4cnn(Cc5ccc(N6CCC(N(C)Cc7ccnc(N8CCC(=O)NC8=O)c7)CC6)cc5)c4)nc3n21 [GT-07944, (R)-N-(1-(4-(4-(((2-(2,4-dioxotetrahydropyrimidin-1(2H)-yl)pyridin-4-yl)methyl)(methyl)amino)piperidin-1-yl)benzyl)-1H-pyrazol-4-yl)-9-methyl-6-oxo-6,7,8,9-tetrahydropyrido[3',2':4,5]py rrolo[1,2-a]pyrazine-2-carboxamide]	A (A is defined as 0% ≤ substrate protein remaining % ≤ 80%)	A (A is defined as 0% ≤ substrate protein remaining % ≤ 80%)
